Assay results published in the supplement of paper PMC10307832.

Legend:
Experiment in all cases: relative viability (nuclei count vs DMSO), 5 days (fraction); higher = more cells survive
[1] = system: NCI-H2170
Outline: (§1)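 After 5 days of treatment, lung cancer cells in 1536-well plates were fixed and stained in a single step (final 0.05% Triton X-100, 1% formaldehyde, 1 ug/ml Hoechst) and their nuclei counted on 4× images. Treatment had been applied by pin tool the day after seeding as one drug alone or as a fixed anchor-drug dose with five library-drug doses (not always all listed) in √10 steps. Relative viability is the nuclei count of treated wells divided by that of vehicle wells, and values are medians of duplicate plates.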

[2] = system: NCI-H647
Outline: as §1

[3] = system: HARA
Outline: as §1

[4] = system: NCI-H1395
Outline: as §1

[5] = system: NCI-H1437
Outline: as §1

[6] = system: NCI-H2405
Outline: as §1

[7] = system: EKVX
Outline: as §1

[8] = system: HCC-366
Outline: as §1

[9] = system: NCI-H1792
Outline: as §1

[10] = system: HCC-827
Outline: as §1

[11] = system: NCI-H1355
Outline: as §1

[12] = system: BEN
Outline: as §1

[13] = system: NCI-H1993
Outline: as §1

[14] = system: NCI-H2087
Outline: as §1

[15] = system: LOU-NH91
Outline: as §1

[16] = system: NCI-H2342
Outline: as §1

[17] = system: NCI-H522
Outline: as §1

[18] = system: NCI-H1734
Outline: as §1

Q: Which results are given for `COc1nc(C)cnc1NS(=O)(=O)c1cccnc1-c1ccc(-c2nnco2)cc1` [Zibotentan] + NC(=O)Nc1cc(-c2cccc(F)c2)sc1C(=O)N[C@H]1CCCNC1 [AZD7762] (partner 0.2 µM)?
A: relative viability ([1]; first compound 0.08 µM): 0.979; relative viability ([1]; first compound 0.253 µM): 0.881; relative viability ([1]; first compound 0.8 µM): 0.675; relative viability ([1]; first compound 2.53 µM): 0.881; relative viability ([2]; first compound 0.08 µM): 0.353; relative viability ([2]; first compound 0.253 µM): 0.302; relative viability ([2]; first compound 0.8 µM): 0.384; relative viability ([2]; first compound 2.53 µM): 0.676; relative viability ([3]; first compound 0.08 µM): 0.254; relative viability ([3]; first compound 0.8 µM): 0.302; relative viability ([3]; first compound 2.53 µM): 0.416; relative viability ([4]; first compound 0.08 µM): 0.417; relative viability ([4]; first compound 0.253 µM): 0.349; relative viability ([4]; first compound 0.8 µM): 0.401; relative viability ([4]; first compound 2.53 µM): 0.441; relative viability ([5]; first compound 0.08 µM): 1.14; relative viability ([5]; first compound 0.253 µM): 0.897; relative viability ([5]; first compound 0.8 µM): 1.05; relative viability ([5]; first compound 2.53 µM): 1.15; relative viability ([6]; first compound 0.08 µM): 0.766; relative viability ([6]; first compound 0.253 µM): 0.701; relative viability ([6]; first compound 0.8 µM): 0.654; relative viability ([6]; first compound 2.53 µM): 0.846; relative viability ([7]; first compound 0.08 µM): 0.742; relative viability ([7]; first compound 0.253 µM): 0.648; relative viability ([7]; first compound 0.8 µM): 0.718; relative viability ([7]; first compound 2.53 µM): 0.766; relative viability ([8]; first compound 0.08 µM): 0.28; relative viability ([8]; first compound 0.253 µM): 0.208; relative viability ([8]; first compound 0.8 µM): 0.103; relative viability ([8]; first compound 2.53 µM): 0.343; relative viability ([9]; first compound 0.08 µM): 0.899; relative viability ([9]; first compound 0.253 µM): 0.604; relative viability ([9]; first compound 0.8 µM): 0.373; relative viability ([9]; first compound 2.53 µM): 0.822; relative viability ([10]; first compound 0.08 µM): 0.215; relative viability ([10]; first compound 0.253 µM): 0.183; relative viability ([10]; first compound 0.8 µM): 0.183; relative viability ([10]; first compound 2.53 µM): 0.223; relative viability ([11]; first compound 0.08 µM): 0.81; relative viability ([11]; first compound 0.253 µM): 0.858; relative viability ([11]; first compound 0.8 µM): 0.432; relative viability ([11]; first compound 2.53 µM): 0.774; relative viability ([12]; first compound 0.08 µM): 0.7; relative viability ([12]; first compound 0.253 µM): 0.588; relative viability ([12]; first compound 0.8 µM): 0.682; relative viability ([12]; first compound 2.53 µM): 0.677; relative viability ([13]; first compound 0.08 µM): 0.667; relative viability ([13]; first compound 0.253 µM): 0.778; relative viability ([13]; first compound 0.8 µM): 0.728; relative viability ([13]; first compound 2.53 µM): 0.881; relative viability ([14]; first compound 0.08 µM): 1.28; relative viability ([14]; first compound 0.253 µM): 1.22; relative viability ([14]; first compound 0.8 µM): 1.29; relative viability ([14]; first compound 2.53 µM): 1.29; relative viability ([15]; first compound 0.08 µM): 0.838; relative viability ([15]; first compound 0.253 µM): 0.702; relative viability ([15]; first compound 0.8 µM): 0.773; relative viability ([15]; first compound 2.53 µM): 0.795; relative viability ([16]; first compound 0.08 µM): 0.556; relative viability ([16]; first compound 0.253 µM): 0.507; relative viability ([16]; first compound 0.8 µM): 0.439; relative viability ([16]; first compound 2.53 µM): 0.517; relative viability ([17]; first compound 0.08 µM): 0.835; relative viability ([17]; first compound 0.253 µM): 0.862; relative viability ([17]; first compound 0.8 µM): 0.773; relative viability ([17]; first compound 2.53 µM): 0.856; relative viability ([18]; first compound 0.08 µM): 0.629; relative viability ([18]; first compound 0.253 µM): 0.521; relative viability ([18]; first compound 0.8 µM): 0.499; relative viability ([18]; first compound 2.53 µM): 0.55
